{
  "source": "paper PMC5471928",
  "about": "(2017)",
  "key": {"[1]": {"tested_on": "c-kit2 (DNA, G4) CCCGGGCGGGCGCGAGGGAGGGGAGG", "test": "fluorescence light-up", "details": "K+ 100 mM; 10 mM Tris-HCl pH 7.4; 5 µM each; quantum yield 0.13 against 0.08 free"}, "[2]": {"tested_on": "hTel22 (DNA, G4) AGGGTTAGGGTTAGGGTTAGGG", "test": "fluorescence titration", "details": "K+ 100 mM; 10 mM Tris-HCl pH 7.4; 5 µM c-exNDI; apparent"}, "[3]": {"tested_on": "hTel22 (DNA, G4) AGGGTTAGGGTTAGGGTTAGGG", "test": "UV-vis absorption titration", "details": "10 mM Tris-HCl pH 7.4, 5 µM c-exNDI, apparent"}, "[4]": {"tested_on": "HRAS (DNA, G4) TCGGGTTGCGGGCGCAGGGCACGGGCG", "test": "UV-vis absorption titration", "details": "K+ 100 mM; 10 mM Tris-HCl pH 7.4; 5 µM c-exNDI; apparent; overall constant of 2:1 model"}, "[5]": {"tested_on": "TBA (DNA, G4) GGTTGGTGTGGTTGG", "test": "UV-vis absorption titration", "details": "K+ 100 mM; 10 mM Tris-HCl pH 7.4; 5 µM c-exNDI; apparent"}, "[6]": {"tested_on": "c-kit1 (DNA, G4) AGGGAGGGCGCTGGGAGGAGGG", "test": "UV-vis absorption titration", "details": "K+ 100 mM; 10 mM Tris-HCl pH 7.4; 5 µM c-exNDI; apparent"}, "[7]": {"tested_on": "c-myc (DNA, G4) TGAGGGTGGGTAGGGTGGGTAA", "test": "UV-vis absorption titration", "details": "K+ 100 mM; 10 mM Tris-HCl pH 7.4; 5 µM c-exNDI; apparent; main text prints error ± 0.3"}, "[8]": {"tested_on": "ssDNA (DNA, single strand) GGATGTGAGTGTGAGTGTGAGG", "test": "UV-vis absorption titration", "details": "K+ 100 mM; 10 mM Tris-HCl pH 7.4; 5 µM c-exNDI; apparent"}, "[9]": {"tested_on": "dsDNA (DNA, duplex) CAATCGGATCGAATTCGATCCGATTG", "test": "UV-vis absorption titration", "details": "K+ 100 mM; 10 mM Tris-HCl pH 7.4; 5 µM c-exNDI; apparent"}, "[10]": {"tested_on": "hTel22 (DNA, G4) AGGGTTAGGGTTAGGGTTAGGG", "test": "circular dichroism (induced CD)", "details": "K+ 100 mM; 4 µM G4, 16 µM c-exNDI"}},
  "data": [
    {"compound": "CN(C)CCCn1c(=O)c2ccc3c(=O)n(CCCN(C)C)c(=O)c4c5[nH]c6ccccc6[nH]c5c(c1=O)c2c34", "values": [
      {"measurement": "binding", "setting": "[1]", "result": "yes"},
      {"measurement": "K1:1", "setting": "[2]", "result": "5.34±0.03x10^6 M^-1"},
      {"measurement": "K1:1", "setting": "[3]; K+ 100 mM", "result": "5.37±0.06x10^6 M^-1"},
      {"measurement": "K1:2", "setting": "[3]; Na+ 100 mM, overall constant of 2:1 model", "result": "3.0±0.3x10^11 M^-2"},
      {"measurement": "K1:2", "setting": "[4]", "result": "3.0±0.3x10^10 M^-2"},
      {"measurement": "K1:1", "setting": "[5]", "result": "1.2±0.5x10^5 M^-1"},
      {"measurement": "K1:1", "setting": "[6]", "result": "4.82±0.04x10^6 M^-1"},
      {"measurement": "K1:1", "setting": "[7]", "result": "3.43±0.03x10^7 M^-1"},
      {"measurement": "K1:1", "setting": "[8]", "result": "2.85±0.01x10^5 M^-1"},
      {"measurement": "K1:1", "setting": "[9]", "result": "7.41±0.03x10^3 M^-1"},
      {"measurement": "binding", "setting": "[10]", "result": "yes"}
    ]}
  ]
}
